From the NIST ThermoML archive (doi:10.1021/acs.jced.5b00474)
Where “and” joins values, the source holds several entries; their conditions need not be identical. Equal values may be shown once. Numbers after ± are expanded uncertainties.

Assays:
[1] = 101 kPa; for speed of sound: Frequency=3 MHz, Sing-around technique in a fixed-path interferometer; for mass density: Vibrating tube method
[2] = xn = mol fraction of the nth substance listed; details: 101 kPa, Liquid; for speed of sound: Frequency=3 MHz, Sing-around technique in a fixed-path interferometer; for mass density: Vibrating tube method

O=C1CCCN1 [2-pyrrolidinone]
[1], Metastable liquid
Details | mass density [kg/m3] | speed of sound [m/s]
293.15 K | 1111.44 ± 0.51 | 1649.3 ± 0.94
298.15 K | 1107.35 ± 0.51 | 1632.9 ± 0.94
301.15 K | 1104.88 ± 0.51 | –
303.15 K | 1103.26 ± 0.51 | 1616.7 ± 0.93
308.15 K | 1099.17 ± 0.51 | 1600.5 ± 0.93
313.15 K | 1095.08 ± 0.51 | 1584.5 ± 0.92
318.16 K | 1091 ± 0.51 | 1568.6 ± 0.92
323.16 K | 1086.92 ± 0.51 | 1552.8 ± 0.91

CN1CCCC1=O [N-methylpyrrolidone]
[1], Liquid
Details | mass density | speed of sound
293.15 K | 1032.25 ± 0.51 kg/m3 and 1032.51 ± 0.51 kg/m3 | 1564.7 ± 0.94 m/s
298.14 K | 1028.07 ± 0.51 kg/m3 | 1545.5 ± 0.94 m/s
298.15 K | 1027.79 ± 0.51 kg/m3 | 1544.6 ± 0.94 m/s
303.14 K | 1023.61 ± 0.51 kg/m3 | 1526.1 ± 0.93 m/s
303.15 K | 1023.33 ± 0.51 kg/m3 | 1525.3 ± 0.93 m/s
308.15 K | 1019.15 ± 0.51 kg/m3 and 1018.87 ± 0.51 kg/m3 | 1506 ± 0.93 m/s and 1506.9 ± 0.93 m/s
313.15 K | 1014.41 ± 0.51 kg/m3 | 1486.8 ± 0.92 m/s
318.15 K | 1009.95 ± 0.51 kg/m3 | 1467.8 ± 0.92 m/s
323.16 K | 1005.48 ± 0.51 kg/m3 | 1448.9 ± 0.91 m/s

CN1CCCC1=O [N-methylpyrrolidone] + ClC(Cl)Cl
[2], x1 = 1
Details | mass density [kg/m3] | speed of sound [m/s]
293.15 K | 1032.51 ± 0.51 | 1564.7 ± 0.94
298.14 K | 1028.07 ± 0.51 | 1545.5 ± 0.94
303.14 K | 1023.61 ± 0.51 | 1526.1 ± 0.93
308.15 K | 1019.15 ± 0.51 | 1506.9 ± 0.93

CC#N [acetonitrile]
[1], Liquid
Details | mass density | speed of sound
293.15 K | 781.989 ± 0.52 kg/m3 | –
298.15 K | 776.609 ± 0.52 kg/m3 and 776.616 ± 0.52 kg/m3 | 1278.9 ± 0.88 m/s and 1278.6 ± 0.88 m/s
303.15 K | 771.183 ± 0.52 kg/m3 and 771.178 ± 0.52 kg/m3 | 1259 ± 0.88 m/s and 1258.4 ± 0.88 m/s
308.15 K | 765.722 ± 0.52 kg/m3 and 765.719 ± 0.52 kg/m3 | 1239.1 ± 0.87 m/s and 1238.3 ± 0.87 m/s
313.15 K | 760.223 ± 0.53 kg/m3 and 760.231 ± 0.53 kg/m3 | 1219.3 ± 0.86 m/s and 1218.2 ± 0.86 m/s
318.15 K | 754.709 ± 0.53 kg/m3 | 1199.5 ± 0.86 m/s
318.16 K | 754.702 ± 0.53 kg/m3 | 1198.1 ± 0.86 m/s
323.16 K | 749.144 ± 0.53 kg/m3 and 749.15 ± 0.53 kg/m3 | 1178 ± 0.86 m/s and 1179.6 ± 0.84 m/s

CC#N [acetonitrile] + CN1CCCC1=O
[2], x2 = 0
Details | mass density [kg/m3] | speed of sound [m/s]
293.15 K | 781.989 ± 0.52 | –
298.15 K | 776.616 ± 0.52 | 1278.6 ± 0.88
303.15 K | 771.178 ± 0.52 | 1258.4 ± 0.88
308.15 K | 765.719 ± 0.52 | 1238.3 ± 0.87
313.15 K | 760.223 ± 0.53 | 1218.2 ± 0.87
318.16 K | 754.702 ± 0.53 | 1198.1 ± 0.86
323.16 K | 749.144 ± 0.53 | 1178 ± 0.86

CC#N [acetonitrile] + O=C1CCCN1
[2], x2 = 0
Details | mass density [kg/m3] | speed of sound [m/s]
298.15 K | 776.609 ± 0.52 | 1278.9 ± 0.88
303.15 K | 771.183 ± 0.52 | 1259 ± 0.87
308.15 K | 765.722 ± 0.52 | 1239.1 ± 0.87
313.15 K | 760.231 ± 0.53 | 1219.3 ± 0.86
318.15 K | 754.709 ± 0.53 | 1199.5 ± 0.86
323.16 K | 749.15 ± 0.53 | 1179.6 ± 0.85

ClC(Cl)Cl [trichloromethane]
[1], Liquid
Details | mass density | speed of sound
293.15 K | 1487.52 ± 0.57 kg/m3 and 1488.55 ± 0.59 kg/m3 | 1001.5 ± 0.79 m/s and 1000.9 ± 0.78 m/s
295.15 K | 1483.74 ± 0.57 kg/m3 | –
297.15 K | 1479.93 ± 0.57 kg/m3 | –
298.15 K | 1478.02 ± 0.57 kg/m3 and 1479.07 ± 0.55 kg/m3 | 984.65 ± 0.78 m/s and 984.33 ± 0.78 m/s
303.15 K | 1468.47 ± 0.57 kg/m3 | 967.76 ± 0.78 m/s
303.16 K | 1469.52 ± 0.57 kg/m3 | 967.53 ± 0.78 m/s
308.15 K | 1459.91 ± 0.57 kg/m3 | 950.62 ± 0.78 m/s
308.16 K | 1458.85 ± 0.58 kg/m3 | 950.87 ± 0.77 m/s

ClC(Cl)Cl [trichloromethane] + O=C1CCCN1
[2], x2 = 0
Details | mass density [kg/m3] | speed of sound [m/s]
293.15 K | 1487.52 ± 0.57 | 1001.5 ± 0.79
295.15 K | 1483.74 ± 0.57 | –
297.15 K | 1479.93 ± 0.57 | –
298.15 K | 1478.02 ± 0.57 | 984.65 ± 0.78
303.15 K | 1468.47 ± 0.57 | 967.76 ± 0.78
308.16 K | 1458.85 ± 0.57 | 950.87 ± 0.78
